Tested on: normal human umbilical vein endothelial cell (HUVEC)
Test: NO production (nitrite in culture supernatant) in HUVEC, HPLC
Assay type: cell-based
Details: 24-hour culture, FIG. 1
Method: A normal human umbilical vein endothelial cell (HUVEC) line available from Clonetics (SanDiego, Calif., USA) was used with EGM-2 Bullet Kit medium containing 2% FBS (Takara Bio). The cells were cultured in at 37° C., in 5% CO2 incubator, and used for experiment after 4 to 6 passages. Citrulline and reduced glutathione were obtained from Kyowa Hakko Bio.
A cell suspension (0.45 mL) with the adjusted initial cell concentration of 5×10^5 cells/mL was inoculated in a 24-well plate (IWAKI). After 40-hour culture, the media were replaced with those containing citrulline (final concentration 0.3 mM: citrulline group), reduced glutathione (final concentration 1 mM: high-dose glutathione group), and a citrulline and reduced glutathione mixture (citrulline final concentration 0.3 mM; glutathione final concentration 0.3 mM: citrulline+low-dose glutathione group). Media with the sole addition of solvent (PBS) were used as a control group. After 24-hour culture, the cell culture (100 μL) was centrifuged at 12,000 rpm for 10 minutes, and the concentration of nitrite (NO2), which is the stable NO metabolite, in culture supernatant was quantified by HPLC (ENO-20, EICOM).

| Structure (SMILES) | effect on NO production (nitrite NO2 concentration in medium) (citrulline final concentration 0.3 mM) | effect on NO production (nitrite NO2 concentration in medium) (reduced glutathione final concentration 1 mM (high-dose)) |
| --- | --- | --- |
| NC(=O)NCCC[C@H](N)C(=O)O [citrulline, L-citrulline] | no effect |  |
| N[C@@H](CCC(=O)N[C@@H](CS)C(=O)NCC(=O)O)C(=O)O [glutathione, γ-L-Glu-L-Cys-Gly] |  | no effect |

From patent US20150216925A1, “AGENT FOR PREVENTING OR AM[…] ENDOTHELIAL MALFUNCTION” (KYOWA HAKKO BIO CO., LTD., priority 2012, published 2015)
